Earlier results, collected in US20180369136A1, “DEVICES AND METHODS FOR TRANSDERMAL TREATMENT OF BASAL CELL CARCINOMA” (NORTH CAROLINA STATE UNIVERSITY, priority 2015, published 2018).

Experiments:
[1] = system: immunosuppressed syngeneic mice; settings: in vivo
yeast and bacteria cells = settings: in vitro
[2] = system: basal cell carcinoma tumor; settings: oral itraconazole
[3] = system: Hedgehog signaling in basal cell carcinoma; settings: basal cell carcinoma in vitro model

O=c1[nH]cc(F)c(=O)[nH]1 [fluorouracil, 5-fluorouracil]
mutagenicity [1]: causes mutations
mutagenicity (yeast and bacteria cells): causes mutations

CCC(C)n1ncn(-c2ccc(N3CCN(c4ccc(OCC5COC(Cn6cncn6)(c6ccc(Cl)cc6Cl)O5)cc4)CC3)cc2)c1=O (stereo not drawn) [itraconazole]
solubility in ethanol and water (ethanol and water): poor solubility
side effects [2]: grade 4 congestive heart failure

C=C1CC[C@H](O)C/C1=C/C=C1\CCC[C@]2(C)[C@@H]([C@H](C)CCCC(C)C)CC[C@@H]12 [vitamin D3]
solubility in aqueous media (aqueous media): does not readily dissolve
Hedgehog signaling [3]: suppress Hedgehog signaling
